Tests used:
Format in all cases: cell-based, human
Akt1 = test: Western analysis of phosphorylated Akt1 in growth factor-deprived PC-3 cultures; details: PC-3, 48 h growth factor withdrawal; VLDL 2 μg/ml + LPL 2 μg/ml and/or 10 μM SR13904
Method: The ability of SR 13904 to regulate the cell survival Akt1 signaling pathway was assessed. PC-3 cultures were exposed to apoptosis-inducing growth factor deprivation and harvested for Western analysis of phosphorylated Akt1 and total PTEN protein. PTEN is known to inhibit the Akt1 pathway at the level of PI3-kinase. […] Subsequent studies confirmed this conclusion.
Referring to FIG. 8, PC-3 cells were exposed to 48 h of growth factor withdrawal with and without VLDL SR 13904 (2 μg/ml VLDL+2 μg/ml LPL and/or 10 μM SR13904). Standard western analysis for phospho-serine 473, phospho-tyrosine 308, and PTEN were performed. GAPDH was used as a control.

MMP-9 = test: Gelatin zymogel analysis of MMP-9 activity in PC-3 cells; details: PC-3, 16 h; VLDL 2 μg/ml + LPL 2 μg/ml and/or 10 μM SR13904
Method: Zymogel studies were performed to determine whether PPARδ could regulate MMP-9 expression/activity in prostate cancer cells. Over-expression of MMP-9 is directly linked to metastatic prostate cancer, at least in part through mitogen/extracellular-signal-regulated kinase kinase 5/extracellular signal-regulated kinase-5 (MEK5/ERK5). An increase in MMP-9 activity in VLDL-treated PC-3 cells was observed (see FIG. 7), and this activation was attenuated by co-incubation with SR 13904.
Referring to FIG. 7, PC-3 cultures were treated with ligands (2 μg/ml VLDL+2 μg/ml LPL and/or 10 μM SR13904) for 16 h prior to harvesting of cells (for cell counting) and collection and concentration of conditioned media. Loading was based on equal cell numbers, corresponding closely to equal loading volumes.

A549 cells = test: Apoptosis, Cell Death Detection ELISA (DNA fragmentation) in A549 cells; details: A549, 0.5% serum, SR13904 15 μM, 40 h
Method: Referring now to FIG. 6, SR13904 treatment of cancer cells results in increased apoptosis. A549 cells (2×10^4 cells/well) were incubated in 0.5% media (96 well plates) SR13904 for 40 h. The relative degrees of apoptosis were determined using a Cell Death Detection ELISA (Roche). SR represents SR13904. ***p=<0.001 SR vs. SR+GW501.
SR13904 treatment results in increased apoptosis. Down-regulation of PPARδ, either by genetic knockout or by the treatment with 13-S—HODE (15-lipoxygenase-1 product), induces apoptosis in colorectal cancer cells. The effects of SR13904 (15 μM) GW501 (1 μM) on survival of A549 cells (0.5% serum) was determined. Relative degrees of apoptosis were measured using a DNA fragmentation assay.

`Cc1cc(SCc2sc(-c3cccc4ccccc34)nc2C)ccc1OCC(=O)O` [SR 13904] was tested, and the “phosphorylation of serine 473 and tyrosine 308 on the Akt1 protein” value (Akt1) was “completely abolished”, the MMP-9 activity (MMP-9) was “attenuated” and the “apoptosis (DNA fragmentation)” value (A549 cells) was “significant apoptotic effect”.
